# Laboratory results reported in patent US11753407B2, “Compounds for treating spinal muscular atrophy” (PTC Therapeutics, Inc., priority 2012, dated 2023).
# Tests used:
# [1] = test system: Smn protein produced from the SMN2 gene; assay: Smn protein in tissues of neonatal Δ7 SMA mice; format: in vivo; conditions: neonatal SMA Δ7 homozygous knockout mice, IP QD PND 3 to PND 9, brain, spinal cord
# Experimental: This Smn protein assay compares tissues from test compound treated mice with those from DMSO vehicle treated mice to determine the increase in levels of Smn protein produced from the human SMN2 gene.
# Protocol. The tissue samples in Safe-Lock tubes are weighed and the volume of RIPA buffer containing the protease inhibitor cocktail is added based on the weight to volume ratios for each type of tissue: Brain (50 mg/mL), Muscle (50 mg/mL) and Spinal Cord (25 mg/mL).
# Tissues are homogenized using the TissueLyzer by bead milling. 5 mm stainless steel beads are added to the sample and shaken vigorously for 5 minutes at 30 Hz in the TissueLyzer. […] Fluorescence for each well of the plate at 665 nm and 620 nm is measured on an EnVision multilabel plate reader (Perkin-Elmer). The total protein in the tissue homogenate is measured using the BCA assay according to the manufacturer's protocol.
# The normalized fluorescence signal is calculated for each sample, Blank and vehicle control well by dividing the signal at 665 nm by the signal at 620 nm. Normalizing the signal accounts for possible fluorescence quenching due to the matrix effect of the tissue homogenate. […] The ΔF value for each tissue sample well is divided by the total protein quantity (determined using the BCA assay) for that tissue sample. […]
# [2] = test system: human SMN1 minigene mRNA (SMN1-A minigene) in HEK293H cells; assay: Human SMN1 minigene mRNA end-point semi-quantitative RT-PCR splicing assay in cultured cells; format: cell-based; conditions: HEK293H cells transfected with SMN1-A minigene, increasing concentrations, 7 hours, end-point RT-PCR (FIG. 17)
# Excerpt: The RT-PCR assay is used to visualize and quantify the levels of the human SMN1 minigene full length and Δ7 mRNA in primary cells and cell lines expressing the human SMN1 minigene construct treated with a test compound.
# Using the procedure for the preparation of the SMN2 minigene construct described in Biological Example 1, the SMN1 version of the minigene is generated by replacing the sixth nucleotide of exon 7 (a thymine residue) of the SMN2-A minigene construct to cytosine using site-directed mutagenesis. Thus, similar to the SMN2-A minigene construct, the SMN1 minigene construct has a single adenine residue inserted after nucleic residue 48 of exon 7. The SMN1 minigene construct is referred to as SMN1-A.
# Protocol. HEK293H cells (10,000 cells/well/199 μL) were transfected, using FuGENE-6 reagent, in a 96-well plate with 15 ng of the SMN1-A minigene reporter plasmid per well. Cells were incubated for 24 hours following transfection. Test compounds were serially diluted 3.16-fold in 100% DMSO to generate a 7-point concentration curve. A solution of test compound (1 μL, 200× in DMSO) was added to each test well. 1 μL DMSO was added to each control well. The plate was incubated for 7 hours in a cell culture incubator (37° C., 5% CO2, 100% relative humidity). The cells were then lysed in Cells-To-Ct lysis buffer and the lysates were stored at −80° C.
# Two SMN spliced mRNA are generated from the SMN1 minigene. The term “SMN1 minigene FL” refers to the first spliced product containing exon 7, corresponding to full length SMN1 mRNA. The term “SMN1 minigene Δ7” refers to the second product lacking exon 7.
# SMN minigene FL and Δ7 mRNA are amplified using the primers in Table 11. Primer SMN Forward C (SEQ ID NO. 11) hybridizes to a nucleotide sequence in exon 6 (nucleotide 43 to nucleotide 63), primer SMN Reverse A (SEQ ID NO. 2) hybridizes to a nucleotide sequence in the coding sequence of Firefly luciferase. The combination of these two oligonucleotides detects only SMN1 or SMN2 minigenes (RT-PCR) and will not detect endogenous SMN1 or SMN2 genes. Since the HEK293H cells used in Example 16 were transfected with only the human SMN1 minigene, RT-PCR can visualize and quantify only SMN1 minigene full-length and SMN1 minigene Δ7 mRNA.
# To synthesize cDNA, 5 μL of lysate, 4 μL of 5× iScript reaction mix, 1 μL of reverse transcriptase, and 10 μL of water are combined and incubated 5 min at 25° C. followed by 30 min at 42° C., followed by 5 min at 85° C. The cDNA solution is stored at −20° C.
# To perform endpoint PCR, 5 μL of cDNA, 0.2 μL of 100 μM forward primer, 0.2 μL of 100 μM reverse primer, and 22.5 μL of polymerase super mix are combined in a 96 well semiskirted PCR plate. PCR is carried out at the following temperatures for the indicated time: Step 1: 94° C. (2 min), Step 2: 94° C. […]
SMILES,"total protein normalized Smn level ([1]; muscle, skin (FIGS. 12a-d))",SMN1 minigene FL mRNA [2],SMN1 minigene Δ7 mRNA [2],total protein normalized Smn level ([1]; muscle (FIGS. 12e-g))
"COc1ccc(-c2cc(=O)n3cc(N4CCNCC4)ccc3n2)cc1OC [Cpd 6, 2-(3,4-dimethoxyphenyl)-7-(piperazin-1-yl)-4H-pyrido[1,2-a]pyrimidin-4-one]","dose dependently increased in brain, spinal cord, muscle, and skin tissues",progressively more SMN1 minigene FL mRNA,less SMN1 minigene Δ7 mRNA,
"Cc1cn2nc(-c3cc(=O)n4cc(N5CCN(C)CC5)ccc4n3)cc2c(C)n1 [Cpd 170, 2-(4,6-dimethylpyrazolo[1,5-a]pyrazin-2-yl)-7-(4-methylpiperazin-1-yl)-4H-pyrido[1,2-a]pyrimidin-4-one]",,progressively more SMN1 minigene FL mRNA,less SMN1 minigene Δ7 mRNA,dose dependently increased
